What was measured:
B16 [1] = experiment: Antimelanogenic activity in mouse B16 cells assessed as inhibition of alpha-MSH-induced melanogenesis; format: functional, cell-based
B16 [2] = experiment: Antimelanogenic activity in mouse B16 cells assessed as inhibition of alpha-MSH-induced melanogenesis at 10 uM; format: functional
Tyrosinase = biological target: T1, Tyrosinase (Mus musculus, UniProt P11344); experiment: Inhibition of tyrosinase in alpha-MSH-induced mouse B16 cells; format: cell-based
T1 sequence (P11344 whole entry): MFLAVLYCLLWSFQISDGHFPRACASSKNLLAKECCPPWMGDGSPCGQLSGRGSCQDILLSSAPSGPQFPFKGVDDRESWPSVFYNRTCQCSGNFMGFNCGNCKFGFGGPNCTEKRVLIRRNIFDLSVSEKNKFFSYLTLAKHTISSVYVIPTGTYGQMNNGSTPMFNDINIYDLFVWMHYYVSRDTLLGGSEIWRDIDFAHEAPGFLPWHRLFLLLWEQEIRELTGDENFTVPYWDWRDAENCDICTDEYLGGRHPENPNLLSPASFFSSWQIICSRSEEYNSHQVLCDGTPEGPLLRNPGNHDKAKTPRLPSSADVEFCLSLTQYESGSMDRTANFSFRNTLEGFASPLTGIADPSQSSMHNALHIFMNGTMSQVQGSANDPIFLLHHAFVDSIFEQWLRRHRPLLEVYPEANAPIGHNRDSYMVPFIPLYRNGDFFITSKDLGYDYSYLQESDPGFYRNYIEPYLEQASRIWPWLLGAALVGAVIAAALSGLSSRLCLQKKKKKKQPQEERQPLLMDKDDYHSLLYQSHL

B16 [3] = experiment: Antimelanogenic activity in mouse B16 cells assessed as inhibition of alpha-MSH-induced melanogenesis at 100 uM; format: functional

Compound | IC50 (B16 [1]) | inhibition at 10 µM (B16 [2]) | IC50 (Tyrosinase) | inhibition at 100 µM (B16 [3])
Cc1ccc2c(c1)CN(CC(C)C)C(=S)N2 | 1900 nM | > 100% |  | 
O=C1NCc2ccccc2N1 | > 10000 nM | 11% |  | 
CCCCCCN1Cc2cc(C)ccc2NC1=O | > 10000 nM | 12% |  | 
O=C1Nc2ccc(Cl)cc2CN1CC1CCCCC1 | > 10000 nM | 10% |  | 
Cc1ccc2c(c1)CN(CCC(C)C)C(=S)N2 | 3000 nM | > 100% |  | 
Cc1ccc2c(c1)CN(CC(C)C)C(=O)N2 | > 10000 nM | 11% |  | 
Cc1ccc2c(c1)CN(CCC(C)C)C(=O)N2 | > 10000 nM | 15% |  | 
NC(=S)Nc1ccccc1 [PHENYLTHIOUREA] |  |  | 1800 nM | 
Cc1ccc2c(c1)CN(CC(C)C)C(=S)N2C | 17800 nM | 18% |  | 
S=C1NCc2ccccc2N1 | 15800 nM | 36% |  | 
Cc1ccc2c(c1)CN(CC1CCCCC1)C(=O)N2 | > 10000 nM | 18% |  | 
CCCCCCCN1Cc2cc(C)ccc2NC1=O | > 10000 nM | 19% |  | 
Cc1ccc2c(c1)CN(C(C)C)C(=S)N2 | 1900 nM | > 100% |  | 
S=C1Nc2ccc(Cl)cc2CN1CC1CCCCC1 | 1200 nM | > 100% |  | 
CCCCCCCN1Cc2cc(C)ccc2NC1=S | 1400 nM | > 100% |  | 
Cc1ccc2c(c1)CN(CC1CCCCC1)C(=S)N2 | 1600 nM | > 100% |  | 
CCCCCCN1Cc2cc(C)ccc2NC1=S | 1200 nM | > 100% |  | 
NC(=O)Nc1ccccc1 |  |  |  | 0%
Cc1ccc2c(c1)CN(C(C)C)C(=O)N2 | > 10000 nM | 13% |  | 
Cc1ccc2c(c1)CN(C(C)C)C(=S)N2C | 19000 nM | 10% |  | 

Reference: ChEMBL document CHEMBL1208784, “Refinement of the pharmacophore of 3,4-dihydroquinazoline-2(1H)-thiones for their anti-melanogenesis activity” (Bioorg Med Chem Lett, 2010)
